Biological target: Lysine-specific histone demethylase 1A (Homo sapiens, UniProt O60341)
Description: Inhibition of recombinant full length LSD1 (unknown origin) transfected in Escherichia coli BL21 (DE) using H3K4me2 as substrate by flourescence based analysis

Row | IC50 [µM] | SMILES
1 | > 50 | COCCOc1cc2ncnc(Oc3cccc(Cl)c3)c2cc1OCCOC
2 | > 50 | C#Cc1cccc(Nc2nc(-c3ccccc3)nc3ccccc23)c1
3 | > 50 | COCCOc1cc2ncnc(Sc3ccccn3)c2cc1OCCOC
4 | > 50 | COCCOc1cc2ncnc(Sc3ccc(Cl)cc3)c2cc1OCCOC
5 | > 50 | C#Cc1cccc(Nc2ncnc3ccc(Br)cc23)c1
6 | > 50 | COCCOc1cc2ncnc(Nc3ccc(F)cc3)c2cc1OCCOC
7 | > 50 | C#Cc1cccc(Nc2ncnc3cc(OC)c(OC)cc23)c1
8 | > 50 | COCCOc1cc2ncnc(Nc3ccccc3)c2cc1OCCOC
9 | > 50 | COCCOc1cc2ncnc(N3CCN(c4ccccc4F)CC3)c2cc1OCCOC
10 | > 50 | COCCOc1cc2ncnc(Nc3ccc4c(c3)OCO4)c2cc1OCCOC

From ChEMBL document CHEMBL4831513, “Discovery of quinazoline derivatives as a novel class of potent and in vivo efficacious LSD1 inhibitors by drug repurposing” (Eur J Med Chem, 2021)
